System: T1, purified NADH-Nitrate Reductase (NR) from Arabidopsis thaliana
T1 construct: gene NIA2; commercial Arabidopsis NR is probably recombinant NIA2
Experiment: NR activity assay, nitrite detection (sulphanilamide/NED, […] nm), nonlinear regression
Assay type: biochemical
Details: 0.8 mM NADH, 50 mM Hepes/KOH pH 7.5, FAD, Na2MoO4; nitrate 0.08-1.5 mM; no omeprazole

- Km: 408 µM
SMILES: O=[N+]([O-])O [NO3 ^-, nitrate]
